Results published in patent US9993518B2, “Association of a tetrapeptide and a glyceryl ester for treating androgenic alopecia” (PIERRE FABRE DERMO-COSMETIQUE, priority 2014, dated 2018).

Key:
Type in all cases: cell-based
Details in all cases: human hair follicles, 6 h, Control RQ = 1, average of two donors
[1] = system: FZD1 gene; test: FZD1 gene expression in cultured human hair follicle bulbs, quantitative real-time PCR
Description: (§1) Hair follicle bulbs derived from plastic surgery waste (face lifts) from two donors were isolated by microdissection, cultured and treated for 6 hours with the active agents (acetyl tetrapeptide-3, glyceryl laurate, and the association thereof). RNA was extracted, assayed, reverse-transcribed and the expression of a panel of genes expressed in the pilosebaceous follicle was analyzed by quantitative real-time PCR.
(§2) The analysis of the results generated in this study led, for each condition applied and each gene of interest studied, to the calculation of a relative quantity (RQ). RQ corresponds to the expression level of a gene relative to its basal expression level (expression level obtained for the Control condition, the RQ of which is set to 1). Thus, the modulation of a gene's expression level is considered significant when: • the RQ is greater than or equal to 2: the gene is expressed two times more than in the Control condition • the RQ is less than or equal to 0.5: the gene is expressed two times less than in the Control condition.
(§3) The set of results presented below corresponds to the average results obtained for the two donors of the study.

[2] = system: SFRP1 gene; test: SFRP1 gene expression in cultured human hair follicle bulbs, quantitative real-time PCR
Description: as §1, §2, §3

[3] = system: KRT17 gene; test: KRT17 gene expression in cultured human hair follicle bulbs, quantitative real-time PCR
Description: as §1, §2, §3

[4] = system: KRT81 gene; test: KRT81 gene expression in cultured human hair follicle bulbs, quantitative real-time PCR
Description: as §1, §2, §3

[5] = system: KRT27 gene; test: KRT27 gene expression in cultured human hair follicle bulbs, quantitative real-time PCR
Description: as §1, §2, §3

[6] = system: KRT25 gene; test: KRT25 gene expression in cultured human hair follicle bulbs, quantitative real-time PCR
Description: as §1, §2, §3

Compound | RQ (relative quantity), expression level of the FZD1 gene ([1]; 20 μM) | RQ (relative quantity), expression level of the SFRP1 gene ([2]; 20 μM) | RQ (relative quantity), expression level of the KRT17 gene ([3]; 20 μM) | RQ (relative quantity), expression level of the KRT81 gene ([4]; 20 μM) | RQ (relative quantity), expression level of the KRT27 gene ([5]; 20 μM) | RQ (relative quantity), expression level of the KRT25 gene ([6]; 20 μM) | RQ (relative quantity), expression level of the FZD1 gene ([1]; 10 μM) | RQ (relative quantity), expression level of the SFRP1 gene ([2]; 10 μM) | RQ (relative quantity), expression level of the KRT17 gene ([3]; 10 μM) | RQ (relative quantity), expression level of the KRT81 gene ([4]; 10 μM) | RQ (relative quantity), expression level of the KRT27 gene ([5]; 10 μM) | RQ (relative quantity), expression level of the KRT25 gene ([6]; 10 μM)
acetyl tetrapeptide-3 (Ac-KGHK-NH2) [ATP-3, CAS number 827306-88-7] | 1.2 | 1.3 | 0.8 | 1.5 | 1.4 | 1.7 | – | – | – | – | – | –
CCCCCCCCCCCC(=O)OCC(O)CO (stereo not drawn) [GL, glyceryl laurate] | – | – | – | – | – | – | 1.3 | 0.9 | 1.1 | 1.8 | 1.3 | 1.3
